We go through 25 compounds from ChEMBL document CHEMBL5241092, “The antibacterial activity of fluoroquinolone derivatives: An update (2018-2021)” (2021).

What all share (format): functional
One assay relates to Escherichia coli. Put plainly: Antibacterial activity against Escherichia coli.
The subject of another assay is Klebsiella pneumoniae. The assay can be described thus: Antibacterial activity against Klebsiella pneumoniae.
The next assay relates to Staphylococcus aureus. The assay can be described thus: Antibacterial activity against Staphylococcus aureus.
The test system of another assay is Pseudomonas aeruginosa. Put plainly: Antibacterial activity against Pseudomonas aeruginosa.
The subject of assay [1] is Staphylococcus epidermidis. Put plainly: Antibacterial activity against Staphylococcus epidermidis.
A further assay has as its system Listeria monocytogenes. Put plainly: Antibacterial activity against Listeria monocytogenes.
In assay [2] the test system is Lactobacillus acidophilus. The assay can be described thus: Antibacterial activity against Lactobacillus acidophilus.
Assay [3] concerns Yersinia pseudotuberculosis. Put plainly: Antibacterial activity against Yersinia pseudotuberculosis.
The test system of a further assay is Enterococcus faecalis. Put plainly: Antibacterial activity against Enterococcus faecalis.
The subject of a further assay is Bacillus cereus. Put plainly: Antibacterial activity against Bacillus cereus.

Values after ≈ are worked out from the molar mass of the structure shown.

As for `CCN1CCN(c2cc3c(cc2F)c(=O)c(C(=O)O)cn3CC)CC1`, the MIC against Escherichia coli, in the assay on Klebsiella pneumoniae, against Staphylococcus aureus and in the assay on Pseudomonas aeruginosa was 1.1 µg/mL (≈ 3.17 µM) throughout.

For the compound `CC[C@H](C)[C@H](NC(=O)[C@H](CCCCN)NC(=O)[C@H](CCCCN)NC(=O)[C@H](C)NC(=O)[C@H](CC(C)C)NC(=O)[C@H](C)NC(=O)[C@H](C)NC(=O)[C@H](CC(C)C)NC(=O)[C@H](C)NC(=O)[C@H](CCCCN)NC(=O)[C@H](CC(C)C)NC(=O)[C@H](CC(N)=O)NC(=O)[C@@H](NC(=O)[C@H](CCCCN)NC(=O)CNC(=O)[C@H](CC(C)C)NC(=O)[C@H](CC(C)C)NC(=O)[C@H](Cc1ccc(O)cc1)NC(=O)CNC(=O)[C@H](C)NC(=O)CCSSCCC(=O)N1CCN(c2cc3c(cc2F)c(=O)c(C(=O)O)cn3C2CC2)CC1)[C@@H](C)CC)C(=O)N[C@@H](CC(C)C)C(N)=O`, the MIC90 (in assay [1]; in the assay with Escherichia coli; in the assay on Staphylococcus aureus; in the assay on Pseudomonas aeruginosa) was 0.025 µg/mL (≈ 0.0093 µM) each time.

Consider `COc1c(N2C[C@H]3CCCN(Cc4ccc(Cl)cc4)[C@H]3C2)c(F)cc2c(=O)c(C(=O)O)cn(C3CC3)c12`, for which the MIC (in the assay on Listeria monocytogenes; in assay [2]; against Escherichia coli; in the assay with Klebsiella pneumoniae; in assay [3]; in the assay with Staphylococcus aureus) was < 2.39 µg/mL throughout. The minimal inhibitory concentration (MIC) in the assay on Enterococcus faecalis and with Pseudomonas aeruginosa was < 2.39 µg/mL throughout.

Regarding `COc1c(N2C[C@H]3CCCN(Cc4ccc(C)cc4)[C@H]3C2)c(F)cc2c(=O)c(C(=O)O)cn(C3CC3)c12`, the minimum inhibitory concentration (MIC) (against Listeria monocytogenes; in assay [2]; against Escherichia coli; with Klebsiella pneumoniae; in assay [3]; in the assay on Staphylococcus aureus) was < 2.39 µg/mL in each case. Besides, the MIC against Enterococcus faecalis and with Pseudomonas aeruginosa was < 2.39 µg/mL each time.

For the compound `COc1c(N2C[C@H]3CCCN(Cc4ccccc4)[C@H]3C2)c(F)cc2c(=O)c(C(=O)O)cn(C3CC3)c12`, the MIC (in the assay on Listeria monocytogenes; in [2]; against Escherichia coli; against Klebsiella pneumoniae; in [3]; with Staphylococcus aureus) was < 2.39 µg/mL in each case. Further, the MIC in the assay with Enterococcus faecalis and in the assay with Pseudomonas aeruginosa was < 2.39 µg/mL in each case.

In the case of `COc1c(N2C[C@H]3CCCN(Cc4ccc([N+](=O)[O-])cc4)[C@H]3C2)c(F)cc2c(=O)c(C(=O)O)cn(C3CC3)c12`, the MIC (against Listeria monocytogenes; in assay [2]; against Escherichia coli; against Klebsiella pneumoniae; in assay [3]; against Staphylococcus aureus) was < 2.39 µg/mL throughout. For the same compound, the MIC in the assay on Enterococcus faecalis and against Pseudomonas aeruginosa was < 2.39 µg/mL in each case.

In the case of `COc1c(N2C[C@H]3CCCN(S(=O)(=O)c4ccc(F)cc4)[C@H]3C2)c(F)cc2c(=O)c(C(=O)O)cn(C3CC3)c12`, the minimum inhibitory concentration (MIC) (with Listeria monocytogenes; in assay [2]; in the assay on Escherichia coli; in the assay on Klebsiella pneumoniae; in assay [3]; in the assay with Staphylococcus aureus) was < 2.42 µg/mL throughout. Further, the MIC with Enterococcus faecalis and in the assay with Pseudomonas aeruginosa was < 2.42 µg/mL each time.

On to `COc1c(N2C[C@H]3CCCN(C(=O)c4ccccc4)[C@H]3C2)c(F)cc2c(=O)c(C(=O)O)cn(C3CC3)c12`, for which the minimal inhibitory concentration (MIC) (with Listeria monocytogenes; in assay [2]; against Bacillus cereus; against Escherichia coli; against Klebsiella pneumoniae; in [3]) was < 1.23 µg/mL each time. In addition, the minimal inhibitory concentration (MIC) against Staphylococcus aureus, against Enterococcus faecalis and against Pseudomonas aeruginosa was < 1.23 µg/mL in each case.

For `CCn1c(S)nnc1CN1CCN(c2cc3c(cc2F)c(=O)c(C(=O)O)cn3CC)CC1`, the MIC (against Bacillus cereus; in the assay on Escherichia coli; in [3]; in the assay on Staphylococcus aureus; against Enterococcus faecalis; against Pseudomonas aeruginosa) was < 0.24 µg/mL throughout.

For the compound `COc1c(N2C[C@H]3CCCN(S(=O)(=O)c4ccc([N+](=O)[O-])cc4)[C@H]3C2)c(F)cc2c(=O)c(C(=O)O)cn(C3CC3)c12`, the minimal inhibitory concentration (MIC) (with Listeria monocytogenes; in assay [2]; against Escherichia coli; against Klebsiella pneumoniae; in [3]; in the assay on Staphylococcus aureus) was < 2.42 µg/mL each time. The MIC with Enterococcus faecalis and in the assay on Pseudomonas aeruginosa was < 2.42 µg/mL throughout.

As for `COc1c(N2C[C@H]3CCCN(C(=O)c4ccc(Cl)cc4)[C@H]3C2)c(F)cc2c(=O)c(C(=O)O)cn(C3CC3)c12`, the MIC against Listeria monocytogenes was ≤ 1.23 µg/mL; in [2], < 1.23 µg/mL; against Bacillus cereus, ≤ 1.23 µg/mL; against Escherichia coli, < 1.23 µg/mL; in the assay with Klebsiella pneumoniae, < 1.23 µg/mL; in assay [3], < 1.23 µg/mL. For the same compound, the MIC against Staphylococcus aureus was ≤ 1.23 µg/mL; in the assay with Enterococcus faecalis, ≤ 1.23 µg/mL; in the assay with Pseudomonas aeruginosa, < 1.23 µg/mL.

On to `COc1c(N2C[C@H]3CCCN(Cc4ccc(Br)cc4)[C@H]3C2)c(F)cc2c(=O)c(C(=O)O)cn(C3CC3)c12`, for which the minimal inhibitory concentration (MIC) (in the assay with Listeria monocytogenes; in assay [2]; against Escherichia coli; in the assay on Klebsiella pneumoniae; in assay [3]; in the assay with Staphylococcus aureus) was < 2.39 µg/mL in each case. Further, the minimal inhibitory concentration (MIC) against Enterococcus faecalis and in the assay on Pseudomonas aeruginosa was < 2.39 µg/mL each time.

For the compound `COc1ccc(S(=O)(=O)N2CCC[C@@H]3CN(c4c(F)cc5c(=O)c(C(=O)O)cn(C6CC6)c5c4OC)C[C@@H]32)cc1`, the minimum inhibitory concentration (MIC) (with Listeria monocytogenes; in [2]; with Escherichia coli; against Klebsiella pneumoniae; in [3]; with Staphylococcus aureus) was < 2.42 µg/mL in each case. Also, the MIC against Enterococcus faecalis and with Pseudomonas aeruginosa was < 2.42 µg/mL each time.

For `C=CCn1c(SCC(=O)N2CCN(c3cc4c(cc3F)c(=O)c(C(=O)O)cn4C3CC3)CC2)nnc1-c1ccccc1`, the MIC with Escherichia coli, in the assay on Klebsiella pneumoniae, with Staphylococcus aureus and in the assay on Pseudomonas aeruginosa was 1.42 µg/mL (≈ 2.41 µM) each time.

As to `COc1c(N2C[C@H]3CCCN(S(=O)(=O)c4ccc(Cl)cc4)[C@H]3C2)c(F)cc2c(=O)c(C(=O)O)cn(C3CC3)c12`, the minimal inhibitory concentration (MIC) (in the assay with Listeria monocytogenes; in assay [2]; with Escherichia coli; with Klebsiella pneumoniae; in assay [3]; against Staphylococcus aureus) was < 2.42 µg/mL in each case. Further, the minimal inhibitory concentration (MIC) against Enterococcus faecalis and with Pseudomonas aeruginosa was < 2.42 µg/mL throughout.

Take `COc1c(N2C[C@H]3CCCN(C(=O)c4ccc(F)cc4)[C@H]3C2)c(F)cc2c(=O)c(C(=O)O)cn(C3CC3)c12`: the MIC is ≤ 1.23 µg/mL in the assay on Listeria monocytogenes; < 1.23 µg/mL in assay [2]; ≤ 1.23 µg/mL with Bacillus cereus; < 1.23 µg/mL against Escherichia coli; < 1.23 µg/mL in the assay with Klebsiella pneumoniae; < 1.23 µg/mL in assay [3]. The MIC against Staphylococcus aureus is ≤ 1.23 µg/mL; in the assay with Enterococcus faecalis, ≤ 1.23 µg/mL; in the assay on Pseudomonas aeruginosa it was < 1.23 µg/mL.

For the compound `COc1c(N2C[C@H]3CCCN(Cc4ccc(F)cc4)[C@H]3C2)c(F)cc2c(=O)c(C(=O)O)cn(C3CC3)c12`, the MIC (with Listeria monocytogenes; in assay [2]; against Escherichia coli; with Klebsiella pneumoniae; in assay [3]; with Staphylococcus aureus) was < 2.39 µg/mL throughout. Moreover, the minimal inhibitory concentration (MIC) with Enterococcus faecalis and in the assay with Pseudomonas aeruginosa was < 2.39 µg/mL throughout.

As for `COc1ccc(CN2CCC[C@@H]3CN(c4c(F)cc5c(=O)c(C(=O)O)cn(C6CC6)c5c4OC)C[C@@H]32)cc1`, the minimum inhibitory concentration (MIC) (against Listeria monocytogenes; in assay [2]; against Escherichia coli; in the assay on Klebsiella pneumoniae; in [3]; in the assay with Staphylococcus aureus) was < 2.39 µg/mL each time. The minimum inhibitory concentration (MIC) with Enterococcus faecalis and against Pseudomonas aeruginosa was < 2.39 µg/mL in each case.

With `O=C(CSC(=S)N1CCN(c2cc3c(cc2F)c(=O)c(C(=O)O)cn3C2CC2)CC1)Nc1cccc(Cl)c1`, the minimal inhibitory concentration (MIC) was determined as 0.024 µg/mL (≈ 0.0417 µM) in assay [1], 0.024 µg/mL (≈ 0.0417 µM) in the assay on Escherichia coli and 0.195 µg/mL (≈ 0.339 µM) against Pseudomonas aeruginosa.

Regarding `COc1c(N2C[C@H]3CCCN(S(=O)(=O)c4ccccc4)[C@H]3C2)c(F)cc2c(=O)c(C(=O)O)cn(C3CC3)c12`, the minimal inhibitory concentration (MIC) (in the assay with Listeria monocytogenes; in assay [2]; in the assay with Escherichia coli; in the assay with Klebsiella pneumoniae; in [3]; against Staphylococcus aureus) was < 2.42 µg/mL in each case. Moreover, the MIC in the assay on Enterococcus faecalis and with Pseudomonas aeruginosa was < 2.42 µg/mL throughout.

In the case of `COc1c(N2C[C@H]3CCCN(S(=O)(=O)c4ccc(C)cc4)[C@H]3C2)c(F)cc2c(=O)c(C(=O)O)cn(C3CC3)c12`, the minimal inhibitory concentration (MIC) (in the assay on Listeria monocytogenes; in assay [2]; with Escherichia coli; with Klebsiella pneumoniae; in assay [3]; against Staphylococcus aureus) was < 2.42 µg/mL throughout. Besides, the MIC against Enterococcus faecalis and with Pseudomonas aeruginosa was < 2.42 µg/mL throughout.

`CCn1cc(C(=O)O)c(=O)c2cc(F)c(N3CCN(CCC(=O)Nc4ccc(/C(C)=N\OC)cc4)CC3)cc21`: the MIC in the assay on Klebsiella pneumoniae was > 50 µg/mL.

As to `COc1c(N2C[C@H]3CCCN(S(=O)(=O)c4ccc(Br)cc4)[C@H]3C2)c(F)cc2c(=O)c(C(=O)O)cn(C3CC3)c12`, the MIC (in the assay with Listeria monocytogenes; in assay [2]; in the assay with Escherichia coli; in the assay with Klebsiella pneumoniae; in assay [3]; against Staphylococcus aureus) was < 2.42 µg/mL throughout. Besides, the MIC in the assay with Enterococcus faecalis and in the assay on Pseudomonas aeruginosa was < 2.42 µg/mL each time.

Regarding `C=Cn1c(SCC(=O)N2CCN(c3cc4c(cc3F)c(=O)c(C(=O)O)cn4C3CC3)CC2)nnc1-c1ccccc1`, the MIC in the assay with Escherichia coli came out at 1.7 µg/mL (≈ 2.96 µM); in the assay with Klebsiella pneumoniae it was 1.7 µg/mL (≈ 2.96 µM); in the assay on Staphylococcus aureus it was 1.7 µg/mL (≈ 2.96 µM); in the assay on Pseudomonas aeruginosa, 1.42 µg/mL (≈ 2.47 µM).

As for `COc1c(N2C[C@@H]3CCCN[C@@H]3C2)c(F)cc2c(=O)c(C(=O)O)cn(C3CC3)c12` [MOXIFLOXACIN], the MIC with Listeria monocytogenes, in the assay with Bacillus cereus and in the assay on Enterococcus faecalis was < 0.6 µg/mL in each case.
